From US20140314697A1, “Method for Inhibiting Inflammation and Reducing Melanophilin Expression with Glycine Derivatives And the Composition Thereof” (CORUM INC., priority 2013, published 2014) come the findings set out here.

Molecules are shown by their SMILES. Square brackets hold non-standard residues; d marks the D form. Peptide text beside a SMILES is read from it. Sar = CNCC(=O)O

For assay [1], the system named is Human IL-8 secretion, Normal Human Epidermal Keratinocytes (NHEK). As to the kind of experiment: Human IL-8 production in UVB-irradiated NHEK (ELISA). It is filed as cell-based. The note with it: Table 10, 0.20%; for Human IL-8 Content, Average: 40 mJ/cm2 UVB; for Human IL-8 Content, Entry 1: passage 2 + 3, 40 mJ/cm2 UVB; for Human IL-8 Content, Entry 2: passage 2 + 4, 40 mJ/cm2 UVB; for Human IL-8 Content, Entry 3: passage 2 + 5, 40 mJ/cm2 UVB; for Human IL-8 Content, Entry 4: passage 2 + 6, 40 mJ/cm2 UVB. The procedure:
(§1) Normal Human Epidermal Keratinocytes (NHEK) (PromoCell No. C-12008);
(§2) Positive Control: 40 mJ/cm^2 UVB,
(§3) Negative Control: No UVB irradiation;
(§4) a. Rinse the confluent NHEK cells with sterile D-PBS then trypsinize all cells and perform cell counting.
(§5) b. Dilute the cell density to 4˜8E+04/mL and seed 0.5 mL cell liquid (equals to 2˜4E+04 cells) each well in 24 well plate.
(§6) c. Incubate NHEK cells at 37° C., 5% CO2 until subconfluence.
(§7) d. Prepared dosing solution of testing material in Complete Medium: 0.4%, 0.2%, 0.1%, 0.05%.
(§8) e. Rinse the NHEK cells with sterile D-PBS and discard rinse buffer. Add 400 μL of controls and testing materials in different concentrations into NHEK cells in 24 well plates.
(§9) f. Pre-incubate NHEK cells with testing material at 37° C., 5% CO2 for about 6 hours.
(§10) g. After pre-incubating for about 6 hours, wash the NHEK cells with sterile D-PBS for twice then add […] sterile D-PBS for UVB irradiation.
(§11) h. UVB intensity is about 2300 μW/cm^2 and UVB energy is about 40 mJ/cm^2.
(§12) i. After UVB irradiation, discard sterile D-PBS and wash again. Add 400 μL of the same dosing solution in to each wells.
(§13) j. Post-incubate at 37° C., 5% CO2 for about 18 hours.
(§14) k. After post-incubating for 18 hours, collect the supernatant of controls and testing materials.
(§15) l. Determine the IL-6/IL-8 content of the supernatant by R&D ELISA kit as mentioned previously.
(§16) Normal Human Epidermal Keratinocytes (NHEK) were treated by the above-mentioned glycine derivatives for evaluating their anti-inflammatory effect on keratinocytes in this example.

Assay [2] deals with Human IL-6 secretion, Normal Human Epidermal Keratinocytes (NHEK). As to the kind of experiment: Human IL-6 production in UVB-irradiated NHEK (ELISA). As to conditions: Table 9, 0.20%, Positive Control 100%; for Human IL-6 Content, Average: 40 mJ/cm^2 UVB; for Human IL-6 Content, Entry 1: passage 2 + 2, 40 mJ/cm^2 UVB; for Human IL-6 Content, Entry 2 / Human IL-6 Content, Entry 3: passage 2 + 3, 40 mJ/cm^2 UVB. Type of assay: cell-based. The procedure:
as §1, §2, §3, §4, §5, §6, §7, §8, §9, §10, §11, §12, §13, §14, §15, §16
(ELISA stands for enzyme-linked immunosorbent assay.)

Turning to `CC(=O)NCC(=O)N(C)CC(=O)O` [Ac-Gly-Sar, [(2-Acetylamino-acetyl)-methyl-amino]-acetic acid] (Ac-Gly-[Sar]-OH), in assay [1], the “Human IL-8 Content, Average” value was determined as 76%; the “Human IL-8 Content, Entry 1” value came to 73%; the “Human IL-8 Content, Entry 2” value is listed as 70%; the “Human IL-8 Content, Entry 3” value was 74%. Moreover, the “Human IL-8 Content, Entry 4” value in assay [1] amounted to 88%. In assay [2], the “Human IL-6 Content, Average” value amounted to 14%; the “Human IL-6 Content, Entry 1” value is on record as 14%; the “Human IL-6 Content, Entry 2” value is given as 21%; the “Human IL-6 Content, Entry 3” value is listed as 7%.
Consider `CC(=O)NCC(=O)NCCCC(=O)O` [Ac-Gly-GABA, 4-(2-Acetylamino-acetylamino)-butyric acid], for which, in assay [1], the “Human IL-8 Content, Average” value came out at 70%; the “Human IL-8 Content, Entry 1” value is 59%; the “Human IL-8 Content, Entry 2” value was 70%; the “Human IL-8 Content, Entry 3” value came out at 64%. The “Human IL-8 Content, Entry 4” value in assay [1] is recorded as 87%. Moreover, in assay [2], the “Human IL-6 Content, Average” value stood at 14%; the “Human IL-6 Content, Entry 1” value turned out to be 11%; the “Human IL-6 Content, Entry 2” value is 25%; the “Human IL-6 Content, Entry 3” value is 6%.
As for `CC(=O)NCC(=O)NCC(=O)O` [Ac-Gly-Gly, (2-acetylamino-acetylamino)-acetic acid], in assay [1], the “Human IL-8 Content, Average” value came out at 59%; the “Human IL-8 Content, Entry 2” value was 68%; the “Human IL-8 Content, Entry 3” value is recorded as 54%; the “Human IL-8 Content, Entry 4” value is listed as 53%. Also, in assay [2], the “Human IL-6 Content, Average” value stood at 20%; the “Human IL-6 Content, Entry 1” value was 12%; the “Human IL-6 Content, Entry 2” value was found to be 16%; the “Human IL-6 Content, Entry 3” value amounted to 33%.
